Results published in patent publication US20250099455A1, “TREATMENT FOR CONGESTIVE HEART FAILURE” (FibroGen, Inc., priority 2022, published 2025).
“Also recorded” adds a separate entry of the source.

Experiments:
[1] = Preliminary PK profile in dogs; format: in vivo, dog
Description: The preliminary PK profile of the compound of Formula I in dogs was studied and the results are shown in FIG. 19 and summarized in the following Table.

[2] = system: congestive heart failure subsequent to myocardial infarction; assay: Rat CHF subsequent to myocardial infarction, every other day dosing (Example 1); format: in vivo
Method: The effect of the compound of Formula I on cardiac function in congestive heart failure (CHF) was studied by inducing CHF subsequent to myocardial infarction (MI). Three groups of rats (n=12) were subjected to MI by 30 minute ligation of the left coronary artery followed by reperfusion. In a sham group, rats underwent a similar surgical procedure except that the left coronary artery was not occluded. Treatment with the compound of Formula I was initiated 2 days after reperfusion. In the MI groups, rats were dosed orally every other day with vehicle, 6 mg/kg or 20 mg/kg compound from day 2 to day 26 post MI. In the sham group, rats were dosed with vehicle on the same schedule. At 28 days post-MI, cardiac function, heart weight, and complete blood count (CBC) were measured. Histomorphometric analysis was performed on cardiac sections to quantify collagen deposition with picrosirius red staining (PSR), remodeling with hematoxylin and eosin staining and blood vessel number with immunohistochemistry for smooth muscle α-actin. • Male Sprague Dawley rats • Ligation of left coronary artery for 30 minutes followed by reperfusion • Post-ligation recovery for 28 days • Cardiac function 28 days after ischemia-reperfusion using a Millar pressure-volume catheter inserted in the left ventricle via the carotid artery • Record pressure-volume loops over several cardiac cycles and derived cardiac function parameters

PHD1 = PHD1 (Homo sapiens (Human), UniProt Q96KS0); assay: HIF-PH assay (14CO2 capture), PHD1; format: biochemical
Description: The selectivity profile for the compound of Formula I can be determined using, for example, any assay familiar and commonly accessible to those skilled in the art, e.g., the following HIF-PH assay.
Ketoglutaric acid α-[1-^14C]-sodium salt, alpha-ketoglutaric acid sodium salt, and HPLC purified peptide may be obtained from commercial sources, e.g., Perkin-Elmer (Wellesley MA), Sigma-Aldrich, and SynPep Corp. (Dublin CA), respectively. Peptides for use in the assay may be fragments of HIFα as described above or as disclosed in International Publication WO 2005/118836, incorporated by reference herein. HIF-PH, e.g., PHD1 (EGLN2) or PHD2 (EGLN1), can be expressed in, e.g., insect Hi5 cells, and partially purified, e.g., through a SP ion exchange chromatography column. Enzyme activity is determined by capturing ^14CO2 using an assay described by Kivirikko and Myllyla (1982, Methods Enzymol. 82:245-304). Assay reactions contain 50 mM HEPES (pH 7.4), 100 μM α-ketoglutaric acid sodium salt, 0.30 μCi/mL ketoglutaric acid α-[1-^14C]-sodium salt, 40 μM FeSO4, 1 mM ascorbate, 1541.8 units/mL Catalase, with or without 50 µM peptide substrate and various concentrations of compound of the invention. Reactions are initiated by addition of HIF-PH enzyme. IC50 (compound concentration for 50% inhibition of enzyme activity) of the compounds for each enzyme can be determined.
The peptide-dependent percent turnover is calculated by subtracting percent turnover in the absence of peptide from percent turnover in the presence of substrate peptide. Percent inhibition and IC50 are calculated using peptide-dependent percent turnover at given inhibitor concentrations. Calculation of IC50 values for each inhibitor is conducted using GraFit software (Erithacus Software Ltd., Surrey UK). IC50 of test compound for PHD1 and for PHD2 and/or PHD3 can be readily determined using the above method, and used to assess the selectivity of the compound for inhibition of PHD1.

[3] = system: congestive heart failure subsequent to myocardial infarction; assay: Rat CHF subsequent to myocardial infarction, delayed treatment (Example 2); format: in vivo
Method: The effect of delayed treatment with the compound of Formula I on cardiac function in congestive heart failure (CHF) was studied by inducing CHF subsequent to MI. Four groups of rats (n=11-12) were subjected to MI by 30 minute ligation of the left coronary artery followed by reperfusion. In a sham group, rats underwent a similar surgical procedure except that the left coronary artery was not occluded. Cardiac function was measured in one group at 28 days post-MI (Baseline). In the remaining MI groups, dosing with vehicle or test article was initiated on Day 28. Rats were orally dosed every other day with vehicle, 6 mg/kg or 20 mg/kg compound from day 28 until day 54 post-MI. At 56 days post-MI, cardiac function, heart weight and complete blood count (CBC) were measured. • Male Sprague Dawley rats • Ligation of left coronary artery for 30 minutes followed by reperfusion • Post-ligation recovery for 28 days • Cardiac function 28 days after ischemia-reperfusion using a Millar pressure-volume catheter inserted in the left ventricle via the carotid artery • Record pressure-volume loops over several cardiac cycles and derived cardiac function parameters

[4] = dog, in vivo, dogs, preliminary
[5] = 6 or 20 mg/kg oral QOD day 2-26 post MI, 28 days post-MI
[6] = 6 or 20 mg/kg oral QOD day 2-26 post MI, 28 days post-MI, vs vehicle
[7] = histomorphometry of left ventricle, QOD dosing, 28 days
[8] = delayed administration, 6, 20 mg/kg QOD, 4 weeks
[9] = delayed: 6 or 20 mg/kg oral QOD day 28-54 post-MI, 56 days post-MI
[10] = delayed: 6 or 20 mg/kg oral QOD day 28-54 post-MI, 56 days post-MI, vs vehicle

PHD1, sequence (Q96KS0 whole entry, species assumed): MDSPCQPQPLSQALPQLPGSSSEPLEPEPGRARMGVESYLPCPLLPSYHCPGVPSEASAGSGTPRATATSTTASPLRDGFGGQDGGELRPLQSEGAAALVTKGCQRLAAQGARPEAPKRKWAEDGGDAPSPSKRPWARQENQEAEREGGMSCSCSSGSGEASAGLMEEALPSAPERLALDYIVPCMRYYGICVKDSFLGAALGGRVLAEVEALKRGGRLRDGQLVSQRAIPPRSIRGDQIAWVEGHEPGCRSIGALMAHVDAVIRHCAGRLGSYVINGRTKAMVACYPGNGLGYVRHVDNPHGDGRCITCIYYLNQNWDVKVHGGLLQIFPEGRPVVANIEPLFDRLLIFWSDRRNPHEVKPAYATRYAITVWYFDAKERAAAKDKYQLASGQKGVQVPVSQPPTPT

Sex difference in PK ([1]; dog): No | Dose proportional ([1]; dog, 10-60 mg/kg): Yes | CL ([1]; dog, PK summary table): 4.2 ± 0.683 mL/min/kg | half-life ([1]; dog, in vivo, PK summary table): 11 ± 2 h | bioavailability ([1]; dog, in vivo, po, dogs, read-out: Oral bioavailability (Oral % F)): ~25% | AUC(0-inf) [1, 4]: 10200 ± 3300 ng·h/mL | AUC(0-t) [1, 4]: 10200 ± 3300 ng·h/mL | Cmax [1, 4]: 2600 ± 1900 ng/mL | Tmax [1, 4]: 0.8 ± 0.4 h | clearance [1, 4]: 4.2 mL/min/kg | half-life [1, 4]: 11.3 ± 1.8 h | Vd ([1]; dog, in vivo, dogs, preliminary, read-out: Vss): 0.249 ± 0.073 L/kg | Dose proportional ([1]; dog, up to 150 mg/kg): less than dose | Accumulation (after multiple dosing) ([1]; dog, no data, expected based on T1/2): some acc based | Vss relative to plasma volume ([1]; dogs): higher than plasma volume | Clearance in dogs relative to CL in rats ([1]; dogs vs rats): 5-10 × | Tmax ([1]; in vivo, oral, dog, PK summary table): ~1 h | IC50 (PHD1; Table 1): 0.91 µM | IC50 (PHD1; additional experiment, Table 1A): 0.7 µM | PHD2/PHD1 (PHD1; ratio IC50 PHD2/IC50 PHD1, additional experiment, Table 1A): 24
SMILES: CC(C)(CC(=O)O)NC(=O)c1nc(C#N)c2cc(Oc3ccccc3)ccc2c1O [Formula I, 3-[(1-cyano-4-hydroxy-7-phenoxy-isoquinoline-3-carbonyl)-amino]-3-methyl-butyric acid]
collagen deposition ([2]; 6, 20 mg/kg QOD, 4 weeks): reduced; also recorded: reduction in cardiac hypertrophy | ESPVR slope [2, 5]: normalized | circulating hemoglobin level [2, 5]: did not produce a concomitant significant increase; also recorded: without any concomitant rise | other CBC parameters [2, 5]: did not produce a concomitant significant increase in circulating hemoglobin level or have a significant effect | arterial elastance [2, 6]: significantly improved | cardiac hypertrophy [2, 6]: significantly improved; also recorded: significant improvement; also recorded: reduced; also recorded: reduction in cardiac hypertrophy | cardiac output [2, 6]: significantly improved; also recorded: significant improvement | ejection fraction [2, 6]: significantly improved; also recorded: significant improvement; also recorded: improved at both doses) | end-diastolic pressure [2, 6]: significantly improved | end-systolic pressure [2, 6]: significantly improved | end-systolic volume [2, 6]: significantly improved; also recorded: significant improvement | relaxation time [2, 6]: significantly improved; also recorded: significant improvement | stroke volume [2, 6]: significantly improved; also recorded: significant improvement | stroke work [2, 6]: significantly improved; also recorded: significant improvement | cardiac contractility ([2]; every day or every other day for 28 days): significant improvement | hypervascularization in the peri-infarct area [2, 7]: significant reduction | left ventricular wall thinning / wall thickness [2, 7]: prevention of ventricular wall thinning; also recorded: preserved | diastolic function [3, 8]: Some improvement in diastolic | systolic function [3, 8]: improved systolic function (ejection | cardiac hypertrophy [3, 9]: improved; also recorded: Some improvement in diastolic | dPdtmax [3, 9]: improved | end-diastolic volume [3, 9]: improved | hematocrit [3, 9]: no significant effect; also recorded: no erythropoietic effect | hemoglobin level [3, 9]: no significant effect; also recorded: no erythropoietic effect | relaxation time [3, 9]: improved; also recorded: improvement | ejection fraction [3, 10]: significantly improved; also recorded: improvement; also recorded: fraction improved at both doses) | end-systolic volume [3, 10]: significantly improved; also recorded: improvement | cardiac contractility ([3]; started 28 days after MI, every other day for 28 days): improvement
